Key:
Type in all cases: biochemical
[1] = target: T1, TaKaRa Taq DNA polymerase (Thermus aquaticus, UniProt P19821); experiment: Effects of acidic substances on TaKaRa Taq DNA polymerase, PCR of 8 kb fragment (Example 5(2)); design: key: ++: Intensive amplification being observed; +: Amplification being observed; ±: Slight amplification being observed; −: No amplification being observed; details: 10 U TaKaRa Taq, 100 pg λDNA, 25 μl, 30 cycles 98°C 5 s-68°C 3 min, added 0.25 ng polysaccharide-F, 0.25 ng dextran sulfate or 0.5 μg sodium alginate
T1 construct: purchased Takara Shuzo Co., Ltd
T1 sequence (P19821 whole entry, the tested form may be a part): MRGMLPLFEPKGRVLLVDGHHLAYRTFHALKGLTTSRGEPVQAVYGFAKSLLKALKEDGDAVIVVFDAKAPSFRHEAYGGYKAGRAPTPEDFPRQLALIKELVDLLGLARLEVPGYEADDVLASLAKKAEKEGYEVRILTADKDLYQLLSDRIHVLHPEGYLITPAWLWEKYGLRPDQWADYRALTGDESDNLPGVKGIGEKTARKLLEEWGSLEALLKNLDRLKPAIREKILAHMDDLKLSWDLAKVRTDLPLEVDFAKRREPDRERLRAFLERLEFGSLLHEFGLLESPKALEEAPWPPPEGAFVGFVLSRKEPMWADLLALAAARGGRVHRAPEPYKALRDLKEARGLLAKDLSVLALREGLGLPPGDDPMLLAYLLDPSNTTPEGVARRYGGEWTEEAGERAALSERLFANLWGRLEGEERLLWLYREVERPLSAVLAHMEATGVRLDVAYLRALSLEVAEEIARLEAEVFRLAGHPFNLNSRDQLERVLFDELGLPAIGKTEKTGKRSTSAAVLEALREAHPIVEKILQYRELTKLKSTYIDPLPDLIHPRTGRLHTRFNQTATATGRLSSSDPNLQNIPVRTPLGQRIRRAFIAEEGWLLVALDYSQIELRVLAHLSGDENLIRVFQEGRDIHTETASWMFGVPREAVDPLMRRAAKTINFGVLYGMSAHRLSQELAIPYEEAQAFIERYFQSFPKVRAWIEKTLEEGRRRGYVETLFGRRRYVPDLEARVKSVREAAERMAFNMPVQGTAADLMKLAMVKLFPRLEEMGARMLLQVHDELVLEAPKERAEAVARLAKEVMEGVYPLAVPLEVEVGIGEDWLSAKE
Text: Using as acidic substances the sulfated-fucose-containing polysaccharide-F obtained by the process described in Item (1) of Example 5, dextran sulfate powder (manufactured by Onco), or sodium alginate (100 to 150 centipoises, manufactured by Wako Pure Chemicals), the effects of these acidic substances on the activity of TaKaRa Taq DNA polymerase (manufactured by Takara Shuzo Co., Ltd.) were examined.
A PCR reagent mixture comprising λDNA as a template, primers λ1 and λ7 as a primer pair and TaKaRa Taq DNA polymerase as a DNA polymerase was prepared, and PCR was carried out. The PCR reagent mixture was prepared so as to have the following composition.
Buffer for TaKaRa Taq DNA polymerase, 10 U of TaKaRa Taq DNA polymerase, 100 pg of λDNA, 0.2 mM each of DATP, dCTP, dGTP and dTTP, and 5 pmol each of primers λ1 and λ7 (final volume being 25 μl). Further, 0.25 ng of the sulfated-fucose-containing polysaccharide-F, 0.25 ng of dextran sulfate powder, or 0.5 μg of sodium alginate were added as acidic substances to the above PCR reagent mixture.
The reaction was carried out in 30 cycles for a total time period of PCR of about 110 minutes, wherein one cycle of reaction comprises a process consisting of 98° C., 5 seconds-68° C., 3 minutes. […]

λDNA = experiment: Effect of amount of DNA polymerase and acidic substance, PCR of 10 kb fragment (Example 7); details: sodium alginate 2.5 μg added to Polymerase B; image analyzer FM-BIO
Protocol: A PCR reagent mixture comprising λDNA as a template and primers λ1 and λ8 as a primer pair was prepared, and PCR was carried out. In this PCR, TaKaRa EX Taq DNA polymerase and Polymerase B were used. The composition for a PCR reagent mixture is shown below.
Buffer for TaKaRa EX Taq DNA polymerase, 0.2 mM each of dATP, dCTP, dGTP and dTTP, 10 pg of λDNA, 1.25 U of TaKaRa EX Taq DNA polymerase or 0.5 μl of Polymerase B and 10 pmol each of primers λ1 and λ8 (final volume being 50 μl).
Further, to the above PCR reagent mixture was added 2.5 μg of sodium alginate, to prepare a PCR reagent mixture.
(§1) The reaction was carried out in 30 cycles for a total period for PCR of about 80 minutes, wherein one cycle of reaction comprises a process consisting of 98° C., 5 seconds-68° C., 2 minutes. After the termination of reaction, 8 μl of the resulting sample was electrophoresed on 1% agarose gel containing ethidium bromide in an amount of 0.00005%, thereby confirming an amplified fragment.

Polymerase A [2] = experiment: Combination of spergualins and acidic substances with Polymerase A, 20 kb fragment of E. coli genomic DNA (Example 8(2)); design: key: ++: Intensive amplification being observed; +: Amplification being observed; ±: Slight amplification being observed; −: No amplification being observed; details: No 15-deoxyspergualin/2.5 μg sodium alginate, 0.5 μl Polymerase A, 5 ng E. coli genomic DNA, 30 cycles 98°C 5 s-68°C 3 min
Protocol: (2) The effects of the combination of spergualins and acidic substances on the DNA polymerase were studied in a case where template DNA was E. coli genomic DNA. The composition for a PCR reagent mixture is shown below.
The composition for the PCR reagent mixture was the same as that in Item (1) of Example 8, except for using 5 ng of E. coli genomic DNA (manufactured by Takara Shuzo Co., Ltd.) and 10 pmol each of primers of Eco-1 and Eco-6. To the above PCR reagent mixture was added 0.5 μl of Polymerase A, and further were added in combination 2.5 μg of sodium alginate and 15-deoxyspergualin trihydrochloride so as to have a final concentration of 1 μM, 5 μM or 10 μM, respectively, making up a final volume of 50 μl. In addition, as controls, there were respectively prepared a PCR reagent mixture in which 2.5 μg of sodium alginate was only added without adding 15-deoxyspergualin trihydrochloride, and a PCR reagent mixture in which both 15-deoxyspergualin trihydrochloride and sodium alginate were not added.
Rapid PCR was carried out in 30 cycles for a total time period of PCR of about 110 minutes, wherein one cycle of reaction comprises a process consisting of 98° C., 5 seconds-68° C., 3 minutes. […]

Polymerase B [3] = experiment: Rapid PCR by combination of Polymerase B with acidic substance, 12 kb fragment (Example 6(2)); design: key: + to +++: Extent of amplification is shown in 3 grades.; + to +++: Extent of amplification is shown in 3 grades.; + to +++: Extent of amplification is shown in 3 grades; details: 0.5 μl Polymerase B, 10 pg λDNA, 25 μl, 30 cycles 98°C 5 s-68°C 3 min, added 0.75 ng polysaccharide-F or 5 μg sodium alginate
Protocol: A PCR reagent mixture comprising λDNA as a template and primers λ1 and λ9 as a primer pair was prepared, and PCR was carried out. The composition for a PCR reagent mixture is as follows.
Buffer for TaKaRa EX Taq DNA polymerase, 0.2 mM each of dATP, dCTP, dGTP and dTTP, 10 pg of λDNA, 0.5 μl of Polymerase B and 5 pmol each of primers λ1 and λ9 (final volume being 25 μl). Further, 0.75 ng of sulfated-fucose-containing polysaccharide-F or 5 μg of sodium alginate was added, respectively, to the above PCR reagent mixture.
as §1, with “30 cycles,” for “30 cycles for a total period for PCR of about 80 minutes,”, “C., 3” for “C., 2”, “reaction, 5” for “reaction, 8”

Polymerase B [4] = experiment: Combination of spergualins and acidic substances with Polymerase B, 10 kb fragment of λDNA (Example 8(1)); design: key: + to ++++: Extent of amplification is shown in 4 grades.; + to ++++: Extent of amplification is shown in 4 grades.; + to ++++: Extent of amplification is shown in 4 grades.; + to ++++: Extent of amplification is shown in 4 grades.; −: No amplification being observed; details: No 15-deoxyspergualin/2.5 μg sodium alginate, 0.5 μl Polymerase B, 10 pg λDNA, 30 cycles 98°C 5 s-68°C 90 s
Protocol: (1) A PCR reagent mixture comprising λDNA as a template and primers λ1 and λ8 as a primer pair was prepared, and rapid PCR was carried out. In this PCR, Polymerase B was used. As the spergualins, 15-deoxyspergualin trihydrochloride was used, and as the acidic substances, sodium alginate (manufactured by Wako Pure Chemicals) was used. The composition for a PCR reagent mixture is shown below.
50 mM Tris-acetate buffer (pH 8.5), 0.2 mM each of dATP, dCTP, dGTP and dTTP, 3 mM magnesium acetate, 50 mM potassium acetate, 10 pg of λDNA, 10 pmol each of primers λ1 and λ8. To the above PCR reagent mixture was added 0.5 μl of Polymerase B, and further 15-deoxyspergualin trihydrochloride and sodium alginate were added in combination at concentrations shown in Table 10, making up a final volume of 50 μl. In addition, as controls, there were respectively prepared a PCR reagent mixture in which 2.5 μg of sodium alginate was added without adding 15-deoxyspergualin trihydrochloride, and a PCR reagent mixture in which both 15-deoxyspergualin trihydrochloride and sodium alginate were not added.
Rapid PCR was carried out in 30 cycles for a total time period of PCR of about 65.5 minutes, wherein one cycle of reaction comprises a process consisting of 98° C., 5 seconds-68° C., 90 seconds. […]

Polymerase A [5] = experiment: Rapid PCR by combination of Polymerase A with acidic substance, about 10 kb fragment (Example 6(1)); design: key: ++: Intensive amplification being observed; +: Amplification being observed; ±: Slight amplification being observed; −: No amplification being observed; details: 0.5 μl Polymerase A, 10 pg λDNA, 2.5 μg sodium alginate, 30 cycles 98°C 5 s-68°C 75 s
Protocol: (1) Rapid PCR by Combination of Polymerase A with Acidic Substance Using λDNA as template, a PCR reagent mixture comprising λDNA as a template, primers λ1 and λ8 as a primer pair was prepared, and PCR was carried out. The composition for a PCR reagent mixture is as follows.
50 mM Tris-acetate (pH 8.5), 0.2 mM each of dATP, dCTP, dGTP and dTTP, 3 mM magnesium acetate, 50 mM potassium acetate, 10 pg of λDNA, 0.5 μl of Polymerase A and 10 pmol each of primers λ1 and λ8 (final volume being 25 μl). Further, 2.5 μg of sodium alginate was added to the above PCR reagent mixture. As a control, a PCR reagent mixture without adding sodium alginate was also prepared.
Reaction Conditions: The reaction was carried out in 30 cycles, wherein one cycle of reaction comprises a process consisting of 98° C., 5 seconds-68° C., 75 seconds. The reaction was carried out in fast mode using TaKaRa PCR Thermal Cycler PERSONAL (manufactured by Takara Shuzo Co., Ltd.).
After the termination of reaction, 6 μl each of the resulting sample was electrophoresed on 1% agarose gel containing ethidium bromide in an amount of 0.00005%, thereby confirming an amplified fragment of about 10 kb.

dextran sulfate [Dextran Sulfate Powder]
Amplification Results [1]: ++

sodium alginate
Amount of the amplified product compared to the case where no sodium alginate was added (λDNA): about five times
Amplification Results (Polymerase A [2]): ±
Amplification Results [1]: ++
Amplification Results (Polymerase B [3]): +++
Amplification Results (Polymerase B [4]): +
Amplification Results (Polymerase A [5]): ++

From US6673578B1, “Method for synthesizing DNA” (Takara Shuzo Co., Ltd., priority 1998, dated 2004)
